This is an account of results in patent publication US10669238B2, “Irreversible bruton's tyrosine kinase inhibitor” (HEFEI INSTITUTES OF PHYSICAL SCIENCE, CHINESE ACADEMY OF …, priority 2016, dated 2020).

Experiment [1] relates to diffuse large B-cell lymphoma cell lines TMD8. The experiment can be described thus: Cell proliferation (Cell Titer-Glo), TMD8. It counts as cell-based. The note with it: Homo sapiens, TMD8, 72 h, read-out: Effects on cell proliferation (GI50). A general note: In ATP-based viability assays light output follows the ATP content of the culture.
Excerpt: The following cells were adopted in the example: acute myelocytic leukemia cell strains (acute myelocytic leukemia, AML) HL-60, B-lymphoma cell Ramos, colon cancer cells HCT116, leukemic cells K562, B-cell lymphoma cells U2932, diffuse large B-cell lymphoma cell line OCI-LY10, diffuse histiocytic lymphoma cells SU-DHL-2, diffuse large B-cell lymphoma cell lines TMD8, leukemia cell OCI-AML-3, acute promyelocytic leukemia cell line NB-4 (Lu+), MDS-RAEB (myelodysplastic syndrome—excessive blasts) cell lines SKM-1, human leukocyte leukemia cells HEL, acute myeloid leukemia cell lines (acute myelocytic leukemia, AML) U937, acute myeloid leukemia cell lines (acute myelocytic leukemia, AML) MOLM14, acute myeloid leukemia cell lines (acute myelocytic leukemia, AML) MOLM13, acute myeloid leukemia cell lines (acute myelocytic leukemia, AML) M-07e, acute myeloid leukemia cell lines (acute myelocytic leukemia, AML) MV4-11, acute myeloid leukemia cell lines (acute myelocytic leukemia, AML) MOLM16, diffuse large B-cell lymphoma cell lines Pfeiffer, multiple myeloma cell lines (multiple myeloma) RPM18226, bone marrow plasma cell tumor cells AMO-1, mouse pro-B cells BaF3, all purchased from ATCC.
In this example different concentrations (0.000508 μM, 0.00152 μM, 0.00457 μM, 0.0137 μM, 0.0411 μM, 0.123 μM, 0.370 μM, 1.11 μM, 3.33 μM, 10 μM) of Compound 1 and Compound 6 were respectively added into the above cells which were then cultured for 72 hours. The number of viable cells was determined via quantitative determination of ATP in living cells by using Cell Titer-Glo® (Promega, the USA) Chemical Luminescent Cell Viability Assay kit.
For experiment [2], the system named is phosphorylation of tyrosine Y223 on Btk. The experiment can be described thus: Effects on BTK Y223 and downstream signaling pathway proteins in cells (anti-IgM stimulation). It counts as cell-based, human. To be noted: Compound 1 in MEC-2, Pfeiffer, Ramos, TMD8, U2932; Compound 35 in MEC-1; 4 hours, then anti-IgM 10 mins. An excerpt: By assaying a number of cellular biochemical and functional endpoints, the properties of the compounds were further characterized. […] In this experiment, PC132765 (purchased from Shanghai Haoyuan Chemexpress Co., Ltd.), CGI11746 (purchased from Shanghai Haoyuan Chemexpress Co., Ltd.) and Compound 6 (prepared herein) were used as control (see FIGS. 2a-2f).
Effects of the compounds on phosphorylation of BTKY223, BTKY551, PLCγ1Y783, PLCγ2Y759, PLCγ2Y1217, P—NF-κB P65, P-AKT Ser473, Erk Thr202/Tyr204 and the like were determined (FIGS. 2a-2f).

Experiment [3] has as its target T1, BTK C481S (Homo sapiens, UniProt Q06187, C481S).
T1 construct: made in house; host or cells: SF9 insect cells
The experiment can be described thus: Btk cell-free kinase assay, BTK C481S mutant protein. In kind it is biochemical. The note with it: compound 30 mins at room temperature, then 100 μM ATP 20 min at 37° C.; read-out: EC50 against BTK C481S. The source says:
(§1) The BTK wild-type plasmid and the BTK mutant plasmid (C481S) were respectively transfected into SF9 cells (purchased from invitrogen), and after three generations of virus amplification, the P3-generation virus was used to transfect SF9 cells which were collected after 72-hour culture to obtain protein BTK WT and protein BTK C481S, which were then purified.

The target in experiment [4] is BTK protein kinase (Homo sapiens, UniProt Q06187). The experiment in a line: In vitro enzymatic activity against BTK (ADP-Glo). It counts as biochemical. The note with it: compound with BTK 4 hours at room temperature, ATP 10 μM, 37° C. 1 hour. The procedure, abridged:
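BTK (1.5 ng/μL enzyme solution) was preincubated with compound (final 10 μM to 0.003 μM) for 4 h at room temperature. Reaction ran 1 h at 37 °C with 10 μM ATP and 0.2 μg/μL poly(Glu,Tyr) 4:1 (final). ADP formed was measured by ADP-Glo luminescence, and IC50 was obtained by curve plotting.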

For experiment [5], the target named is BTK WT (Homo sapiens, UniProt Q06187). The experiment in a line: Btk cell-free kinase assay, BTK WT protein. In kind it is biochemical. The note with it: compound 30 mins at room temperature, then 100 μM ATP 20 min at 37° C.; read-out: EC50 against BTK WT protein.
Chain of BTK WT (Q06187 whole entry): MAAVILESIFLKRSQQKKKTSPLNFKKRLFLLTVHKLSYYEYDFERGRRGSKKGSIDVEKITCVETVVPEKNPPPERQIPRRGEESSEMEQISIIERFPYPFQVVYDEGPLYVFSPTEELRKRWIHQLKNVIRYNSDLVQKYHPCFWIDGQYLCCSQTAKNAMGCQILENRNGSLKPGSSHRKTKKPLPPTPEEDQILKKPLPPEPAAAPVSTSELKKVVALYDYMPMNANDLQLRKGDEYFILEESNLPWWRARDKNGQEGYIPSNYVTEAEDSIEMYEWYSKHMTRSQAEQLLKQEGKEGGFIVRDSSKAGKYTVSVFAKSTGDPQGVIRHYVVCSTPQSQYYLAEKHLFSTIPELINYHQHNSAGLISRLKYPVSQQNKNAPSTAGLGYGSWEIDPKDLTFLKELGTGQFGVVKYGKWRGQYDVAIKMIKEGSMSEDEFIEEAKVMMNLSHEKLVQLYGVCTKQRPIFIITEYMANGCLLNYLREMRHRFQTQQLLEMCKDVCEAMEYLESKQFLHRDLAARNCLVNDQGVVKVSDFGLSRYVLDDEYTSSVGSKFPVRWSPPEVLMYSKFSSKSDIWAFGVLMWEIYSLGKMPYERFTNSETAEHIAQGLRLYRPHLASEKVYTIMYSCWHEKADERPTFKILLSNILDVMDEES
Excerpt: as §1

pEC50: −log10 of the molar value.

Chain of BTK protein kinase (Q06187 whole entry): as above
T1 sequence (Q06187 whole entry C481S): as the sequence (Q06187 whole entry) above, with C481S counted along it

As for `Cc1c(NC(=O)c2ccc(C(C)(C)C)cc2)cccc1-c1cn(C)c(=O)c(Nc2ccc(C(=O)N3CCOCC3)cc2)n1` [CGI1746, reference compound], the GI50 in experiment [1] turned out to be 126 nM.

In general, pEC50 refers to the negative decadic logarithm of the EC50, by convention in mol/L. For orientation: IC50 means the midpoint of a concentration-inhibition curve. As to `C=CC(=O)Nc1cc(Nc2cc(-c3cccc(NC(=O)c4ccc(N(C)C)cc4)c3C)cn(C)c2=O)ccc1C(=O)N1CCOCC1` [Compound 35, N-(3-(5-((3-acrylamide-4-(morpholin-4-carbonyl)phenyl)amino)-1-methyl-6-oxo-1,6-dihydropyridin-3-yl)-2-methylphenyl)-4-(dimethylamino)benzoylamide], the “phosphorylation of tyrosine Y223 on Btk” value in experiment [2] is “selectively and significantly inhibit phosphorylation of tyrosine Y223 on Btk”. Further, the pEC50 in experiment [3] was 6.73; in experiment [5], 7.80. Further, the 50% inhibitory concentration (IC50) in experiment [4] (values in nM) worked out at 5 nM.

On to `C=CC(=O)N1CCC[C@@H](n2nc(-c3ccc(Oc4ccccc4)cc3)c3c(N)ncnc32)C1` [PCI32765, reference compound], for which the GI50 in experiment [1] came out at 1 nM.

On to `C=CC(=O)Nc1cc(Nc2cc(-c3cccc(NC(=O)c4ccc(C(C)(C)C)cc4)c3C)cn(C)c2=O)ccc1C(=O)N1CCN(C(=O)OC(C)(C)C)CC1` [Compound 38, tertbutyl 4-(2-acrylamide-4-((5-(3-(4-(tert-butyl)benzamide)-2-methylphenyl)-1-methyl-2-oxo-1,2-dihydropyridin-3-yl)amino)benzoyl)piperazin-1-carboxylate], for which the IC50 in experiment [4] (values in nM) worked out at 85 nM. This lies in the double-digit nanomolar range.

In the case of `CCC(=O)Nc1cc(Nc2cc(-c3cccc(NC(=O)c4ccc(N(C)C)cc4)c3C)cn(C)c2=O)ccc1C(=O)N1CCOCC1` [Compound 37, N-(3-(5-((3-propanamide-4-(morpholin-4-carbonyl)phenyl)amino)-1-methyl-6-oxo-1,6-dihydropyridin-3-yl)-2-methylphenyl)-4-(dimethylamino)benzo], the IC50 in experiment [4] (values in nM) came out at 646 nM. Against the preceding compound, the IC50 is about 7.6-fold higher.

Consider `C=CC(=O)Nc1ccc(NC(=O)c2ccc(C(C)(C)C)cc2)c(C)c1-c1cc(Nc2ccc(C(=O)N3CCOCC3)cc2)c(=O)n(C)c1` [Compound 24], for which inhibition in experiment [4] (values given in μM) was half-maximal at 1770 nM (IC50). This lies in the single-digit micromolar range.

In the case of `C=CC(=O)Nc1cc(Nc2cc(-c3cccc(NC(=O)c4ccc(C(C)(C)C)cc4)c3C)cn(C)c2=O)ccc1C` [Compound 25, N-(3-(5-((3-acrylamide-4-methylphenyl)amino)-1-methyl-6-oxo-1,6-dihydropyridin-3-yl)-2-methylphenyl)-4-(tert-butyl)benzamide], in experiment [4] (values in nM), the IC50 came out at 212 nM.

For the compound `C=CC(=O)Nc1cc(Nc2cc(-c3cccc(NC(=O)c4ccc(CC)cc4)c3C)cn(C)c2=O)ccc1C(=O)N1CCOCC1` [Compound 62, N-(3-(5-((3-acrylamide-4-(morpholin-4-carbonyl)phenyl)amino)-1-methyl-6-oxo-1,6-dihydropyridin-3-yl)-2-methylphenyl)-4-ethylbenzoylamide], the concentration for half-maximal inhibition (IC50) in experiment [4] (values in nM) is 164 nM.

In experiment [4] (values in nM), `C#CC(=O)Nc1cc(C(=O)N2CCOCC2)ccc1Nc1cc(-c2cccc(NC(=O)c3ccc(C(C)(C)C)cc3)c2C)cn(C)c1=O` [Compound 4, N-(3-(5-((2-propynamide-4-(morpholin-4-carbonyl)phenyl)amino)-1-methyl-6-oxo-1,6-dihydropyridin-3-yl)-2-methylphenyl)-4-(tert-butyl)benzamide] had an IC50 of 32.6 nM.

In experiment [4] (values in nM), `C=CC(=O)Nc1cc(Nc2cc(-c3cccc(NC(=O)c4ccc(C5CC5)cc4)c3C)cn(C)c2=O)ccc1C(=O)N1CCOCC1` [Compound 66, N-(3-(5-((3-acrylamide-4-(morpholin-4-carbonyl)phenyl)amino)-1-methyl-6-oxo-1,6-dihydropyridin-3-yl)-2-methylphenyl)-4-cyclopropylbenzoylamide] showed a half-maximal inhibitory concentration (IC50) of 180 nM.

In experiment [4] (values given in μM), `Cc1c(NC(=O)c2ccc(C(C)(C)C)cc2)cc(NC(=O)CCl)cc1-c1cc(Nc2ccc(C(=O)N3CCOCC3)cc2)c(=O)n(C)c1` [Compound 7, 4-(tert-butyl)-N-(5-(2-chloroacetamide)-2-methyl-3-(1-methyl-5-((4-(morpholin-4-carbonyl)phenyl)amino)-6-oxo-1,6-dihydropyridin-3-yl)phenyl)benzoylamide] registered an IC50 of 1220 nM. In other words, the single-digit micromolar range.

Consider `C=CC(=O)Nc1cc(Nc2cc(-c3cccc(NC(=O)c4cc5c(s4)CCCC5)c3C)cn(C)c2=O)ccc1N(C)C` [Compound 77, N-(3-(5-((3-acrylamide-4-(dimethylamino)phenyl)amino)-1-methyl-6-oxo-1,6-dihydropyridin-3-yl)-2-methylphenyl)-4,5,6,7-tetrahydrobenzo[b]thiophene-2-carboxamide], for which, in experiment [4] (values in nM), the half-maximal inhibitory concentration (IC50) is 101 nM. This lies in the sub-micromolar range.
